# Measured values: patent publication US20020044933A1, “Inhibition of intimal hyperplasia using antibodies to PDGF receptors” (priority 1993, published 2002)
# Legend:
# [1] = system: baboon smooth muscle cells; assay: Inhibition of PDGF mitogenic activity on baboon smooth muscle cells by non-peptidic antagonists; format: cell-based
# [2] = system: rat smooth muscle cells; assay: Inhibition of PDGF-BB binding to rat smooth muscle cells
SMILES,inhibition of PDGF-BB mitogenic activity on baboon smooth muscle cells [1],inhibition of binding of PDGF-BB to rat smooth muscle cells [2],inhibition of PDGF mitogenic activity on baboon smooth muscle cells [1],inhibition of PDGF mitogenic activity on baboon smooth muscle cells in the presence of heparin ([1]; with heparin)
O=C(/C=C/c1ccccc1)OC1C=CC2COC(=O)C2C1C(=O)O (stereo not shown) [92-0825],inhibit PDGF-BB mitogenic activity,inhibit binding,,
"CC1CCCC=CC2CC(O)CC2C(O)C=CC(=O)O1 (stereo not shown) [Brefeldin A, 1,6,7,8,9,11a,12,13,14,14a-Decahydro-1,13-dihydroxy-6-methyl-4H-cyclopent[f]oxacyclotridecin-4-one]",,,inhibit,enhanced
